Literature values in patent US6399115B2, “Method and composition for the treatment of benign prostate hypertrophy (BPH) and prevention of prostate cancer” (priority 1999, dated 2002).

Key:
[1] = test system: plasma testosterone; conditions: in vivo
[2] = test system: 5 alpha-reductase; conditions: human prostatic tissue
[3] = among the major carotenoids

## [Cu] [Copper]
[1]
  levels of plasma testosterone: reduce

## [Zn] [Zinc]
[2]
  relationship with 5 alpha-reductase activity: inverse relationship

## CC(C)=CCC/C(C)=C/C=C/C(C)=C/C=C/C(C)=C/C=C/C=C(C)/C=C/C=C(C)/C=C/C=C(\C)CCC=C(C)C [lycopene]
[3]
  quenching free oxygen radicals: most effective and significant
